Key:
[1] = biological target: T1, Amine oxidase [flavin-containing] B (Homo sapiens, UniProt P27338); assay: Inhibition of human recombinant MAO-B
T1 sequence (P27338 whole entry): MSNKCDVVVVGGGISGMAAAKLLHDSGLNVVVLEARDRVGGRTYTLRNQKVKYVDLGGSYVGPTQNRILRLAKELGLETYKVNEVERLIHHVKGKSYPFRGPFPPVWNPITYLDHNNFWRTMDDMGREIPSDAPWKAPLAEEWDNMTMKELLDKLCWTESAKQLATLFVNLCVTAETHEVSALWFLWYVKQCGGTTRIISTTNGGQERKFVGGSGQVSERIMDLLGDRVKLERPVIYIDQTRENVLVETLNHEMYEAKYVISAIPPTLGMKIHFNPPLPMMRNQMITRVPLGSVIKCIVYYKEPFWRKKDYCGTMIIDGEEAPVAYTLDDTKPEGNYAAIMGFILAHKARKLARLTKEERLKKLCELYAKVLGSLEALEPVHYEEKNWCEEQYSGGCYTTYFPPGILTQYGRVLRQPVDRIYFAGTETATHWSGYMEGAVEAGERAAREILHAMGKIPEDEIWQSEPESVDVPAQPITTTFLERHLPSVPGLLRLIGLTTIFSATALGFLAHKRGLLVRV

MAO-A = biological target: T2, MAO-A (Homo sapiens, UniProt P21397); assay: Inhibition of human recombinant MAO-A at 10 uM
T2 sequence (P21397 whole entry): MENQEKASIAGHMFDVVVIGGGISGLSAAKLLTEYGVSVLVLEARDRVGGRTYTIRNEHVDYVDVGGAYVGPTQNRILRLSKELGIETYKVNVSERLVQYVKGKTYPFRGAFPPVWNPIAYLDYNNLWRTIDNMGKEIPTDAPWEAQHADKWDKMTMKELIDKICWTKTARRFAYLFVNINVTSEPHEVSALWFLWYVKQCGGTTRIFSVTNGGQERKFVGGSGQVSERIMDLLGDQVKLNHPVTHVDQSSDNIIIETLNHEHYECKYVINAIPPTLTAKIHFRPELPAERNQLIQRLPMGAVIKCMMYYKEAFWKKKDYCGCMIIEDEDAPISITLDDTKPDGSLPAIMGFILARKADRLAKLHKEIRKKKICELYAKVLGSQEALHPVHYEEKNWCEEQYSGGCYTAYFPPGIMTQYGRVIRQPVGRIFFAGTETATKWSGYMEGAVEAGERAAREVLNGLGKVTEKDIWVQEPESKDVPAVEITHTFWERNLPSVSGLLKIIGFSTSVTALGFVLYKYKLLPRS

[2] = Antioxidant activity assessed as trolox equivalent of ORAC radical scavenging activity by ORAC-FL assay relative to trolox; assay type: functional
[3] = biological target: Amyloid-beta precursor protein (Homo sapiens) (UniProt P05067); assay: Disaggregation of Cu2+-induced amyloid beta (1 to 42) (unknown origin) preformed fibrils at 25 uM by ThT fluorescence assay
Sequence of Amyloid-beta precursor protein (Homo sapiens) (P05067 whole entry): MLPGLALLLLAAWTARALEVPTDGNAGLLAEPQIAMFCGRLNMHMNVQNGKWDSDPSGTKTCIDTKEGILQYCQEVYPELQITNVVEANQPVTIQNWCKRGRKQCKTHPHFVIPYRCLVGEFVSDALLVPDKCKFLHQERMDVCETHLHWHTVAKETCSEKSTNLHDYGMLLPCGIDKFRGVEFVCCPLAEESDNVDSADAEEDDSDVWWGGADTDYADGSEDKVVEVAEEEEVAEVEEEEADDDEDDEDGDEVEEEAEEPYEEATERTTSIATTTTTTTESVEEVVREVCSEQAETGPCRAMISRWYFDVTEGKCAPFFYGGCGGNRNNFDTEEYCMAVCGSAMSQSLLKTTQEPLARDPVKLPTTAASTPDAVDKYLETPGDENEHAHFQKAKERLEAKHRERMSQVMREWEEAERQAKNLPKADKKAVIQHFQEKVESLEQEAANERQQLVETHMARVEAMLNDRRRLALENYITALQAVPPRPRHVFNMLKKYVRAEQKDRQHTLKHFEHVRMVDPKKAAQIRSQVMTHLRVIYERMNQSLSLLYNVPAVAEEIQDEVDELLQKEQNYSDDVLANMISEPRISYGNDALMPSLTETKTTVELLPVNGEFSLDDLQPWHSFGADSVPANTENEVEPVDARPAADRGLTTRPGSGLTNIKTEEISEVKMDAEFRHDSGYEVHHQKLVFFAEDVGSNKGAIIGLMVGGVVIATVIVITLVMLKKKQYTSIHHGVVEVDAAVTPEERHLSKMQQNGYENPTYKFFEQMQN

[4] = biological target: Amyloid-beta precursor protein (Homo sapiens) (UniProt P05067); assay: Inhibition of self-induced amyloid beta (1 to 42) (unknown origin) aggregation at 25 uM by ThT fluorescence assay
[5] = biological target: Amyloid-beta precursor protein (Homo sapiens) (UniProt P05067); assay: Inhibition of Cu2+-induced amyloid beta (1 to 42) (unknown origin) aggregation at 25 uM by ThT fluorescence assay
[6] = biological target: Amyloid-beta precursor protein (Homo sapiens) (UniProt P05067); assay: Disaggregation of self-induced amyloid beta (1 to 42) (unknown origin) preformed fibrils at 25 uM by ThT fluorescence assay
[7] = biological target: T3, Amine oxidase [flavin-containing] A (Homo sapiens, UniProt P21397); assay: Inhibition of human recombinant MAO-A
T3 sequence (P21397 whole entry): T2 sequence (P21397 whole entry)

[8] = Selectivity index, ratio of IC50 for human recombinant MAO-A to IC50 for human recombinant MAO-B

SMILES | IC50 [1] | inhibition at 10 µM (MAO-A) | Ratio [2] | Activity [3] | inhibition [4] | inhibition [5] | Activity [6] | IC50 [7] | Ratio IC50 [8] | inhibition ([4]; tested as the 2H-labelled form) | Activity ([6]; tested as the 2H-labelled form)
CCCCC1OC(=O)c2cc(N3N=C(c4ccccc4O)CC3=O)ccc21 (configuration not stated) | > 10 µM | 25.6% | 1.55 equiv | 76.4% | 70.9% | 75.3% | 65% | > 10 µM |  |  | 
CCCCC1OC(=O)c2cc(N3N=C(c4ccc(Br)cc4O)CC3=O)ccc21 (configuration not stated) | 12.3 µM | 14.8% | 1.22 equiv | 66% | 65.6% | 69.4% | 54.1% | > 10 µM | > 0.8 |  | 
CCCCC1OC(=O)c2cc(N3N=C(c4cc(Br)ccc4O)CC3=O)ccc21 (configuration not stated) | 9.25 µM | 10.9% | 1.38 equiv | 55% | 69.3% | 64.1% | 44.8% | > 10 µM | > 1.08 |  | 
CCCCC1OC(=O)c2cc(N3N=C(c4cc(N(C)C)ccc4O)CC3=O)ccc21 (configuration not stated) | 6.2 µM | 1.6% | 2.58 equiv | 55.7% | 60.6% | 63.8% | 51% | > 10 µM | > 1.6 |  | 
CCCCC1OC(=O)c2cc(N3N=C(c4cccc(Br)c4O)CC3=O)ccc21 (configuration not stated) | 10.5 µM | 13% | 1.15 equiv | 62.8% | 75.5% | 50.6% | 67.4% | > 10 µM | > 1 |  | 
O=C1OCc2ccc(N3N=C(c4cc(F)ccc4O)CC3=O)cc21 | 0.56 µM | 24.2% | 1.25 equiv | 42.8% | 46.1% | 44.7% | 41.1% | > 10 µM | > 17.9 |  | 
CCCCCCC1OC(=O)c2cc(N3N=C(c4ccccc4O)CC3=O)ccc21 (configuration not stated) | 3.79 µM | 21.7% | 1.33 equiv | 66.7% | 50.3% | 43.8% | 59.5% | > 10 µM | > 2.6 |  | 
CCCCC1OC(=O)c2cc(N3N=C(c4ccc(N(C)C)cc4O)CC3=O)ccc21 (configuration not stated) | 5.07 µM | 9.51% | 1.84 equiv |  | 24.9% |  | 7.68% | > 10 µM | > 2 |  | 
CCCCC1OC(=O)c2cc(N3N=C(c4cc(Cl)cc(Cl)c4O)CC3=O)ccc21 (configuration not stated) | 5.53 µM | 1.11% | 0.97 equiv | 77.7% | 55.1% | 70.3% | 78.3% | > 10 µM | > 1.8 |  | 
CCCCC1OC(=O)c2cc(N3N=C(c4cc(Cl)ccc4O)CC3=O)ccc21 (configuration not stated) | 7.62 µM | 14.1% | 1.32 equiv | 74.6% | 85.1% | 58.8% | 49.9% | > 10 µM | > 1.3 |  | 
CCCCC1OC(=O)c2cc(-n3nc(-c4ccccc4O)cc3C)ccc21 (configuration not stated) | > 10 µM | 20.4% | 1.38 equiv |  | 19.3% |  | 8.11% | > 10 µM |  |  | 
CCCCC1OC(=O)c2cc(N3N=C(c4cccc(F)c4O)CC3=O)ccc21 (configuration not stated) | > 10 µM | 7.96% | 1.07 equiv | 54.6% | 67% | 75.9% | 42.6% | > 10 µM |  |  | 
O=C1OCc2ccc(N3N=C(c4ccccc4O)CC3=O)cc21 | 0.22 µM | 23.2% | 1.38 equiv |  | 33.5% |  | 28.1% | > 10 µM | > 45.5 |  | 
CCCCCCC1OC(=O)c2cc(N3N=C(c4cc(Cl)ccc4O)CC3=O)ccc21 (configuration not stated) | 8.32 µM | 27.8% | 1.18 equiv | 73.8% | 54.6% | 52.7% | 76.3% | > 10 µM | > 1.2 |  | 
CCCCC1OC(=O)c2cc(N3N=C(c4ccc(Cl)cc4O)CC3=O)ccc21 (configuration not stated) | 8.05 µM | 5.51% | 1.29 equiv | 65.6% | 68% | 66.2% | 56.5% | > 10 µM | > 1.2 |  | 
CCCCC1OC(=O)c2cc(N3N=C(c4cc(Cl)cc(Br)c4O)CC3=O)ccc21 (configuration not stated) | 6.5 µM | 8.09% | 1.1 equiv | 86.8% | 65.2% | 85.1% | 87.1% | > 10 µM | > 1.5 |  | 
CCCCCCCC1OC(=O)c2cc(N3N=C(c4ccccc4O)CC3=O)ccc21 (configuration not stated) | 11.4 µM | 14.5% | 1.38 equiv | 71.7% | 57.8% | 44.1% | 68.6% | > 10 µM | > 0.9 |  | 
CCCCCCC1OC(=O)c2cc(N3N=C(c4cc(F)ccc4O)CC3=O)ccc21 (configuration not stated) | 6.34 µM | 10.7% | 1.1 equiv | 55% | 44.6% | 31.8% | 43.7% | > 10 µM | > 1.6 |  | 
CCCCCCCC1OC(=O)c2cc(N3N=C(c4cc(OC)ccc4O)CC3=O)ccc21 (configuration not stated) | 2.87 µM | 8.73% | 1.82 equiv | 60.7% | 45.4% | 63.1% | 31.1% | > 10 µM | > 3.5 |  | 
CC1=NN(c2ccc3c(c2)C(=O)OC3)C(=O)C1 |  |  | 1.18 equiv |  |  |  |  |  | 1.6 | 71.5% | 28.6%
C[C@H](NCc1ccc(OCc2cccc(F)c2)cc1)C(N)=O [SAFINAMIDE] |  | 9.67% |  |  |  |  |  |  |  |  | 
O=C1OCc2ccc(N3N=C(c4cccc(F)c4O)CC3=O)cc21 | 0.9 µM | 21% | 1.1 equiv |  | 21.3% |  | 8.27% | > 10 µM | > 11.1 |  | 
CCCCC1OC(=O)c2cc(N3N=C(c4cc([N+](=O)[O-])ccc4O)CC3=O)ccc21 (configuration not stated) | 9.26 µM | 8.48% | 0.73 equiv | 61.8% | 68.8% | 66.1% | 57.2% | > 10 µM | > 1.1 |  | 
CCCCC1OC(=O)c2cc(N3N=C(c4cc(F)ccc4O)CC3=O)ccc21 (configuration not stated) | 3.45 µM | 13.3% | 1.21 equiv | 59.5% | 66.6% | 60.3% | 52.7% | > 10 µM | > 2.9 |  | 
CCCCC1OC(=O)c2cc(N3N=C(c4cc(C)ccc4O)CC3=O)ccc21 (configuration not stated) | 7.35 µM | 5.2% | 1.6 equiv |  | 54.4% | 61.2% | 24.7% | > 10 µM | > 1.4 |  | 
[2H]C1OC(=O)c2cc(N3N=C(C)CC3=O)ccc21 (configuration not stated) | 4.36 µM |  |  |  |  |  |  | 6.78 µM |  |  | 
CCCCC1OC(=O)c2cc(N3N=C(c4cc(OC)ccc4O)CC3=O)ccc21 (configuration not stated) | 3.88 µM | 2.97% | 2.28 equiv | 69.1% | 78% | 71% | 59.9% | > 10 µM | > 2.6 |  | 
COc1cc(/C=C/C(=O)CC(=O)/C=C/c2ccc(O)c(OC)c2)ccc1O |  |  |  |  |  |  | 35.8% |  |  |  | 

From ChEMBL document CHEMBL5620344, “Discovery of novel 5-(2-hydroxyphenyl)-2-phthalide-3(3H)-pyrazolones as balanced multifunctional agents against Alzheimer's disease” (Eur J Med Chem, 2023)
